The target in this experiment is HiBit-KRAS^G12C (Homo sapiens, UniProt P01116, G12C). The experiment in a line: HiBit degradation assay in SW1573 HiBit-KRas^G12C cells. In kind it is cell-based. The arrangement: expressed in transfected cells; host or cells: SW1573 (clone E6), modified pcDNA3.1 vector, TK promoter. To be noted: 0.1% DMSO, 24 hours; for DC50: SW1573 HiBit-KRas^G12C, read-out: KRas^G12C-HIBit (SW1573; 0.1% DMSO) DC50*. How it is done: Reagents. SW1573 (CRL-2170) and MiaPaCa-2 (CRL-1420) cells were purchased from ATCC. Both cell lines are […] for the G12C mutation in KRAS. SW1573 cells were cultured in DMEM+F12+Glutamax (+Sodium Bicarbonate, +sodium pyruvate, Thermofisher scientific, #10565) supplemented with 10% FBS (Thermofisher scientific, #2060357) and 1% Antibiotic-Antimycotic (Thermofisher scientific, #15240096). MiaPaCa-2 cells were cultured in DMEM+Glutamax media (Thermofisher scientific, #10566) supplemented with 10% FBS (Thermofisher scientific, #2060357) and 1% Antibiotic-Antimycotic (Thermofisher scientific, #15240096). For degradation assays, 384 well plates were purchased from Corning (Corning® CellBIND® 384-well Flat Clear Bottom Black Polystyrene Microplates, Low Flange, #3770). Gambogic acid was purchased from Selleckchem (#S2448). Alamar blue was purchased from Thermofisher scientific (A50101) and used according to manufacturer instructions. The Nano-Glo® HiBit Lytic Detection System and Nano-Glo® HiBit Blotting System were purchased from Promega (#N3050 and #N2410) and used according to manufacturer instructions.
To create the SW1573 HiBit-KRAS^G12C cell line, the nucleotide sequence encoding the 11 amino acid HiBit tag from Promega (Schwinn, M. K. et al. (2018) CRISPR-mediated tagging of endogenous proteins with a luminescent peptide. ACS Chem. Biol. 13(2), 467-474) was appended to the N-terminus of the KRAS^G12C coding sequence. This synthesized DNA was cloned into a modified pcDNA3.1 vector under the control of the thymidine kinase (TK) promoter. This HiBit-KRAS^G12C expressing plasmid was transfected into parental SW1573 cells and colonies were selected using 400 μg/mL zeocin. The resulting clonal lines were screened for expression of HiBit-KRAS^G12C protein using Nano-Glo® HiBit Blotting System. A luminescent band of the correct size for HiBit-KRAS^G12C was detected in several clones. Clone E6 was selected for further studies.
Either SW1573 HiBit-KRas^G12C or MiaPaCa-2 HiBit-KRas^G12C cells were plated at 9000 cells/well in a 384 well plate (Corning #3770). Exemplary heterobifunctional molecules and positive controls were diluted in the appropriate cell media and applied to the plated cells resulting in a final concentration titration of 10 μM to 20 nM in either 0.1% or 0.5% dimethyl sulfoxide (DMSO). Gambogic acid was used as a positive control for cytotoxicity and titrated from 10 μM to 78 nM. All assays were performed in triplicate. Cells were treated with compounds for 24 hours at 37° C. in an incubator containing 5% CO2. Following treatment, alamar blue was used to determine if any compounds led to a loss in cell viability after 24 hours. The 10× alamar blue reagent was added to a final concentration of 1× as recommended by the manufacturer and cells were returned to the incubator for 4 hours. Plates were then allowed to equilibrate to room temperature and fluorescence was measured using a Perkin-Elmer EnVision. After completion of the fluorescence read, the liquid from each well was removed and the cells were washed with PBS. The Nano-Glo® HiBiT detection reagent was prepared according to the manufacturer's instructions and added to each well after the PBS wash was removed. Following incubation at room temperature for 45 minutes, the luminescence was read using the ultra-sensitive luminescence aperture on the Envision instrument.
Fluorescence values from the alamar blue treatment were normalized to the DMSO only control for each compound titration. We hypothesized that compounds that led to a ≥50% loss in cell viability of the KRAS-independent SW1573 HiBit-KRas^G12C cells were likely generally cytotoxic and loss of HiBit-KRAS^G12C signal from these compounds may be due to lower cell number and not specific KRAS^G12C degradation. These points were therefore excluded from the data analysis for degradation. […]
For orientation: The HiBiT peptide binds its large partner to form an active luciferase.

Chain of HiBit-KRAS^G12C (P01116 1-186 isoform P01116-2 G12C limits assumed): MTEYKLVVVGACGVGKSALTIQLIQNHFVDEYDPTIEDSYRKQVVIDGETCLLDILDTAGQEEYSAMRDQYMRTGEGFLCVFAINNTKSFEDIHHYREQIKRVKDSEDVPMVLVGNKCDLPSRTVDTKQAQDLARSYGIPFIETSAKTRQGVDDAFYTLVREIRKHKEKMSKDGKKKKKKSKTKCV

For `C=CC(=O)N1CCN(c2nc(O[C@H](C)CN3CCN(CCCC4CCN(CC(=O)N[C@H](C(=O)N5C[C@H](O)C[C@H]5C(=O)N[C@@H](C)c5ccc(-c6scnc6C)cc5)C(C)(C)C)CC4)CC3)nc3c(F)c(-c4cc(O)cc5ccccc45)c(Cl)cc23)CC1` [Compound 52, (2S,4R)-1-[(2S)-2-{2-[4-(3-{4-[(2R)-2-{[6-chloro-8-fluoro-7-(3-hydroxynaphthalen-1-yl)-4-[4-(prop-2-enoyl)piperazin-1-yl]quinazolin-2-yl]oxy}propyl]piperazin-1-yl}propyl)piperidin-1-yl]acetamido}-3,3-dimethylbutanoyl]-4-hydroxy-N-[(1S)-1-[4-(4-methyl-1,3-thiazol-5-yl)phenyl]ethyl]pyrrolidine-2-carboxamide], the DC50 was more than 1000 nM.

As to `C=CC(=O)N1CCN(c2nc(OCCN3CCC(COCC(=O)N[C@H](C(=O)N4C[C@H](O)C[C@H]4C(=O)N[C@@H](C)c4ccc(-c5scnc5C)cc4)C(C)(C)C)CC3)nc3c(F)c(-c4cc(O)cc5ccccc45)c(Cl)cc23)CC1` (atropisomer, axis not shown) [Compound 10, (2S,4R)-1-[(2S)-2-(2-{[1-(2-{[6-chloro-8-fluoro-7-(3-hydroxynaphthalen-1-yl)-4-[4-(prop-2-enoyl)piperazin-1-yl]quinazolin-2-yl]oxy}ethyl)piperidin-4-yl]methoxy}acetamido)-3,3-dimethylbutanoyl]-4-hydroxy-N-[(1S)-1-[4-(4-methyl-1,3-thiazol-5-yl)phenyl]ethyl]pyrrolidine-2-carboxamide], the DC50 is more than 1000 nM.

In the case of `C=CC(=O)N1CCN(c2nc(O[C@H](C)CN3CCC(CCCN4CCN(CC(=O)N[C@H](C(=O)N5C[C@H](O)C[C@H]5C(=O)N[C@@H](C)c5ccc(-c6scnc6C)cc5)C(C)(C)C)CC4)CC3)nc3c(F)c(-c4cc(O)cc5ccccc45)c(Cl)cc23)CC1` [Compound 56, (2S,4R)-1-[(2S)-2-{2-[4-(3-{1-[(2R)-2-{[6-chloro-8-fluoro-7-(3-hydroxynaphthalen-1-yl)-4-[4-(prop-2-enoyl)piperazin-1-yl]quinazolin-2-yl]oxy}propyl]piperidin-4-yl}propyl)piperazin-1-yl]acetamido}-3,3-dimethylbutanoyl]-4-hydroxy-N-[(1S)-1-[4-(4-methyl-1,3-thiazol-5-yl)phenyl]ethyl]pyrrolidine-2-carboxamide], the DC50 was more than 1000 nM.

Consider `C=C(F)C(=O)N1CCN(c2nc(O[C@H](C)CN3CCC(COc4cc([C@H](C(=O)N5C[C@H](O)C[C@H]5C(=O)N[C@@H](C)c5ccc(-c6scnc6C)cc5)C(C)C)on4)CC3)nc3c(F)c(-c4cc(O)cc5ccccc45)c(Cl)cc23)CC1` [Compound 14, (2S,4R)-1-[(2R)-2-[3-({1-[(2R)-2-({6-chloro-8-fluoro-4-[4-(2-fluoroprop-2-enoyl)piperazin-1-yl]-7-(3-hydroxynaphthalen-1-yl)quinazolin-2-yl}oxy)propyl]piperidin-4-yl}methoxy)-1,2-oxazol-5-yl]-3-methylbutanoyl]-4-hydroxy-N-[(1S)-1-[4-(4-methyl-1,3-thiazol-5-yl)phenyl]ethyl]pyrrolidine-2-carboxamide], for which the DC50 was more than 1000 nM.

For the molecule `C=C(F)C(=O)N1CCN(c2nc(O[C@H](C)CN3CCC(COc4cc([C@@H](C(=O)N5C[C@H](O)C[C@H]5C(=O)N[C@@H](C)c5ccc(-c6scnc6C)cc5)C(C)C)on4)CC3)nc3c(F)c(-c4cc(O)cc5ccccc45)c(Cl)cc23)CC1` [Compound 18, (2S,4R)-1-[(2S)-2-[3-({1-[(2R)-2-({6-chloro-8-fluoro-4-[4-(2-fluoroprop-2-enoyl)piperazin-1-yl]-7-(3-hydroxynaphthalen-1-yl)quinazolin-2-yl}oxy)propyl]piperidin-4-yl}methoxy)-1,2-oxazol-5-yl]-3-methylbutanoyl]-4-hydroxy-N-[(1S)-1-[4-(4-methyl-1,3-thiazol-5-yl)phenyl]ethyl]pyrrolidine-2-carboxamide], the DC50 is more than 1000 nM.

With `C=CC(=O)N1CCN(c2nc(O[C@H](C)CN3CCC(OCCOCCOCCOCCOCCOCCOCC(=O)N[C@H](C(=O)N4C[C@H](O)C[C@H]4C(=O)N[C@@H](C)c4ccc(-c5scnc5C)cc4)C(C)(C)C)CC3)nc3c(F)c(-c4cc(O)cc5ccccc45)c(Cl)cc23)CC1` [Compound 88, (2S,4R)-1-[(2S)-2-[20-({1-[(2R)-2-{[6-chloro-8-fluoro-7-(3-hydroxynaphthalen-1-yl)-4-[4-(prop-2-enoyl)piperazin-1-yl]quinazolin-2-yl]oxy}propyl]piperidin-4-yl}oxy)-3,6,9,12,15,18-hexaoxaicosanamido]-3,3-dimethylbutanoyl]-4-hydroxy-N-[(1S)-1-[4-(4-methyl-1,3-thiazol-5-yl)phenyl]ethyl]pyrrolidine-2-carboxamide], the DC50 is more than 1000 nM.

Consider `C=CC(=O)N1CCN(c2nc(OC[C@@H]3C[C@@H](OCCOCCOCCOCCOCCOCCOCC(=O)N[C@H](C(=O)N4C[C@H](O)C[C@H]4C(=O)N[C@@H](C)c4ccc(-c5scnc5C)cc4)C(C)(C)C)CN3C)nc3c2CCN(c2cccc4ccccc24)C3)C[C@@H]1CC#N` [Compound 81, (2S,4R)-1-[(2S)-2-(20-{[(3R,5S)-5-[({4-[(3S)-3-(cyanomethyl)-4-(prop-2-enoyl)piperazin-1-yl]-7-(naphthalen-1-yl)-5H,6H,7H,8H-pyrido[3,4-d]pyrimidin-2-yl}oxy)methyl]-1-methylpyrrolidin-3-yl]oxy}-3,6,9,12,15,18-hexaoxaicosanamido)-3,3-dimethylbutanoyl]-4-hydroxy-N-[(1S)-1-[4-(4-methyl-1,3-thiazol-5-yl)phenyl]ethyl]pyrrolidine-2-carboxamide], for which the DC50 is more than 1000 nM.

For the molecule `C=CC(=O)N1CCN(c2nc(O[C@H](C)CN3CCC(OCCOCCOCCOCCOCCOc4cc(-c5scnc5C)ccc4CNC(=O)[C@@H]4C[C@@H](O)CN4C(=O)[C@@H](c4cc(C)no4)C(C)C)CC3)nc3c(F)c(-c4cc(O)cc5ccccc45)c(Cl)cc23)CC1` [Compound 80], the DC50 was more than 1000 nM. Besides, under “SW1573, SW1573 HiBit-KRas^G12C, read-out: KRas^G12C-HiBit (SW1573; 0.1% DMSO) Dmax**”, the Dmax fell in the range of 35 to 70%.

On to `C=CC(=O)N1CCN(c2nc(O[C@H](C)CN3CCC(OCCOCCOCCOc4cc(-c5scnc5C)ccc4CNC(=O)[C@@H]4C[C@@H](O)CN4C(=O)[C@@H](c4cc(C)no4)C(C)C)CC3)nc3c(F)c(-c4cc(O)cc5ccccc45)c(Cl)cc23)CC1` [Compound 70, (2S,4R)-N-{[2-(2-{2-[2-({1-[(2R)-2-{[6-chloro-8-fluoro-7-(3-hydroxynaphthalen-1-yl)-4-[4-(prop-2-enoyl)piperazin-1-yl]quinazolin-2-yl]oxy}propyl]piperidin-4-yl}oxy)ethoxy]ethoxy}ethoxy)-4-(4-methyl-1,3-thiazol-5-yl)phenyl]methyl}-4-hydroxy-1-[(2R)-3-methyl-2-(3-methyl-1,2-oxazol-5-yl)butanoyl]pyrrolidine-2-carboxamide], for which the DC50 is more than 1000 nM.

The values above are taken from patent publication US20220370416A1, “COMPOUNDS AND METHODS FOR TARGETED DEGRADATION OF KRAS” (Arvinas Operations, Inc., priority 2020, published 2022).
